Values quoted from earlier work, collected in US20200268684A1, “COMPOSITION FOR TREATING AND PREVENTING NEUROLOGICAL DISEASES, NEUROINFLAMATION AND ALZHEIMER'S DISEASE” (HSRX GROUP, LLC, priority 2015, published 2020).

Tested on: Aβ1-40 and Aβ1-42 peptides in SweAPP N2a cells
Conditions: 3-30 μg/mL, 12 hours

## COc1cc(/C=C/C(=O)CC(=O)/C=C/c2ccc(O)c(OC)c2)ccc1O [curcumin]
  reduction of Aβ1-40 and Aβ1-42 peptides secreted: significant inhibition
